# Patent US20230227427A1, “IL-17A MODULATORS” (SANOFI, priority 2010, published 2023)
# Read-outs that look alike come from different tables or passages of the source.
# Target: T1, human recombinant IL-17A (Homo sapiens, UniProt Q16552)
# T1 construct: purchased R&D Systems 7955-IL/CF
# T1 sequence (Q16552 24-155): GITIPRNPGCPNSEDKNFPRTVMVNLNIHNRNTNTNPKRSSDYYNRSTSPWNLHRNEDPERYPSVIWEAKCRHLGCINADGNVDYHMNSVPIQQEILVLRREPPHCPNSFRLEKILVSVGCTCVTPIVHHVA
# Experiment: IL-17A AlphaLISA assay (block binding of IL-17A to its receptor IL-17RA)
# Settings: read-out: AlphaLISA pIC50 (converted)
# How it was run: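 Compounds pre-incubated 24 h at RT (30 min where flagged) with human IL-17A (7.5 nM stock) before IL-17RA/Fc (5 nM stock), 90 min. Read by AlphaLISA via anti-Fc acceptor and biotin anti-IL-17A/streptavidin donor beads, 680/615 nm. 4-parameter fit; DMSO and 6 μM reference inhibitor as controls; pIC50.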
# [1] = compounds pre-incubated with the IL-17A for 24 h at room temperature
# [2] = compounds pre-incubated with the IL-17A for 30 min (indicated by * in Table A)
IC50 [1] [µM],IC50 [2] [µM],Compound
0.02,–,"CCn1nccc1C(=O)N[C@H](C(=O)Nc1ccc(-c2c(C)cncc2C)cn1)[C@H]1CC[C@H](C)CC1 [Example 92, N—((S)-2-((3′,5′-Dimethyl-[3,4′-bipyridin]-6-yl)amino)-1-((1r,4S)-4-methylcyclohexyl)-2-oxoethyl)-1-ethyl-1H-pyrazole-5-carboxamide]"
0.0501,–,"Cn1nccc1C(=O)N[C@H](C(=O)Nc1ccc(C2CCOCC2)cc1)[C@H]1CC[C@H](C)CC1 [Example 93, 1-Methyl-N—((S)-1-((1r,4S)-4-methylcyclohexyl)-2-oxo-2-((4-(tetrahydro-2H-pyran-4-yl)phenyl)amino)ethyl)-1H-pyrazole-5-carboxamide]"
0.126,–,"Cn1nccc1C(=O)N[C@H](C(=O)Nc1ccc(C2(O)CCOCC2)cc1)[C@H]1CC[C@H](C)CC1 [Example 94, N—((S)-2-((4-(4-Hydroxytetrahydro-2H-pyran-4-yl)phenyl)amino)-1-((1r,4S)-4-methylcyclohexyl)-2-oxoethyl)-1-methyl-1H-pyrazole-5-carboxamide]"
0.1,–,"Cn1nccc1C(=O)N[C@H](C(=O)Nc1ccc(C2=CCOCC2)cc1)[C@H]1CC[C@H](C)CC1 [Example 95, N—((S)-2-((4-(3,6-Dihydro-2H-pyran-4-yl)phenyl)amino)-1-((1r,4S)-4-methylcyclohexyl)-2-oxoethyl)-1-methyl-1H-pyrazole-5-carboxamide]"
0.0501,–,"Cc1noc(C)c1-c1ccc(NC(=O)[C@@H](NC(=O)c2ccnn2C)[C@H]2CC[C@H](C)CC2)cc1 [Example 96, N—((S)-2-((4-(3,5-Dimethylisoxazol-4-yl)phenyl)amino)-1-((1r,4S)-4-methylcyclohexyl)-2-oxoethyl)-1-methyl-1H-pyrazole-5-carboxamide]"
0.0794,–,"Cc1noc(C)c1-c1ccc(NC(=O)[C@@H](NC(=O)c2ccnn2C)[C@H]2CC[C@H](C)CC2)nc1 [Example 97, N—((S)-2-((5-(3,5-Dimethylisoxazol-4-yl)pyridin-2-yl)amino)-1-((1r,4S)-4-methylcyclohexyl)-2-oxoethyl)-1-methyl-1H-pyrazole-5-carboxamide]"
–,0.2,"Cc1n[nH]c(C)c1-c1ccc(NC(=O)[C@@H](NC(=O)c2ccnn2C)[C@H]2CC[C@H](C)CC2)nc1 [Example 99, N—((S)-2-((5-(3,5-Dimethyl-1H-pyrazol-4-yl)pyridin-2-yl)amino)-1-((1r,4S)-4-methylcyclohexyl)-2-oxoethyl)-1-methyl-1H-pyrazole-5-carboxamide]"
–,0.126,"Cc1cncc(C)c1-c1ccc(NC(=O)C(NC(=O)c2ccnn2C)C2CCCCCCC2)cc1 (stereo not shown) [Example 103, N-(1-Cyclooctyl-2-((4-(3,5-dimethylpyridin-4-yl)phenyl)amino)-2-oxoethyl)-1-methyl-1H-pyrazole-5-carboxamide]"
–,0.0794,"Cc1n[nH]c(C)c1-c1ccc(NC(=O)C(NC(=O)c2ccnn2C)C2CCCCCCC2)cc1 (stereo not shown) [Example 104, N-(1-Cyclooctyl-2-((4-(3,5-dimethyl-1H-pyrazol-4-yl)phenyl)amino)-2-oxoethyl)-1-methyl-1H-pyrazole-5-carboxamide]"
–,0.158,"Cc1noc(C)c1-c1ccc(NC(=O)C(NC(=O)c2ccnn2C)C2CCCCCCC2)nc1 (stereo not shown) [Example 105, N-(1-Cyclooctyl-2-((5-(3,5-dimethylisoxazol-4-yl)pyridin-2-yl)amino)-2-oxoethyl)-1-methyl-1H-pyrazole-5-carboxamide]"
–,0.1,"Cc1cnn(C)c1-c1ccc(NC(=O)[C@@H](NC(=O)c2ccnn2C)[C@H]2CC[C@H](C)CC2)nc1 [Example 106, N—((S)-2-((5-(1,4-Dimethyl-1H-pyrazol-5-yl)pyridin-2-yl)amino)-1-((1r,4S)-4-methylcyclohexyl)-2-oxoethyl)-1-methyl-1H-pyrazole-5-carboxamide]"
–,0.158,"Cc1c(-c2ccc(NC(=O)C(NC(=O)c3ccnn3C)C3CCCCCCC3)cc2)ccc(=O)n1C (stereo not shown) [Example 107, N-(1-Cyclooctyl-2-((4-(1,2-dimethyl-6-oxo-1,6-dihydropyridin-3-yl)phenyl)amino)-2-oxoethyl)-1-methyl-1H-pyrazole-5-carboxamide]"
–,0.126,"Cc1noc(C)c1-c1ccc(NC(=O)[C@@H](NC(=O)c2ccnn2C(C)C)C2CCCCC2)nc1 [Example 108, (S)—N-(1-Cyclohexyl-2-((5-(3,5-dimethylisoxazol-4-yl)pyridin-2-yl)amino)-2-oxoethyl)-1-isopropyl-1H-pyrazole-5-carboxamide]"
–,0.1,"CCn1nccc1C(=O)N[C@H](C(=O)Nc1ccc(-c2c(C)noc2C)cn1)[C@H]1CC[C@H](C)CC1 [Example 109, N—((S)-2-((5-(3,5-Dimethylisoxazol-4-yl)pyridin-2-yl)amino)-1-((1r,4S)-4-methylcyclohexyl)-2-oxoethyl)-1-ethyl-1H-pyrazole-5-carboxamide]"
–,0.0794,"Cc1noc(C)c1-c1ccc(NC(=O)[C@@H](NC(=O)c2ccnn2C(C)C)[C@H]2CC[C@H](C)CC2)nc1 [Example 110, N—((S)-2-((5-(3,5-dimethylisoxazol-4-yl)pyridin-2-yl)amino)-1-((1r,4S)-4-methylcyclohexyl)-2-oxoethyl)-1-isopropyl-1H-pyrazole-5-carboxamide]"
–,0.0794,"CCc1nocc1C(=O)N[C@H](C(=O)Nc1ccc(-c2c(C)noc2C)cn1)[C@H]1CC[C@H](C)CC1 [Example 111, N—((S)-2-((5-(3,5-dimethylisoxazol-4-yl)pyridin-2-yl)amino)-1-((1r,4S)-4-methylcyclohexyl)-2-oxoethyl)-3-ethylisoxazole-4-carboxamide]"
–,0.1,"Cc1nocc1C(=O)N[C@H](C(=O)Nc1ccc(-c2c(C)noc2C)cn1)[C@H]1CC[C@H](C)CC1 [Example 112, N—((S)-2-((5-(3,5-dimethylisoxazol-4-yl)pyridin-2-yl)amino)-1-((1r,4S)-4-methylcyclohexyl)-2-oxoethyl)-3-methylisoxazole-4-carboxamide]"
–,0.158,"Cc1cnn(C)c1-c1ccc(NC(=O)C(NC(=O)c2ccnn2C)C2CCCCCCC2)nc1 (stereo not shown) [Example 113, N-(1-Cyclooctyl-2-((5-(1,4-dimethyl-1H-pyrazol-5-yl)pyridin-2-yl)amino)-2-oxoethyl)-1-methyl-1H-pyrazole-5-carboxamide]"
–,0.158,"CCc1nocc1C(=O)N[C@H](C(=O)Nc1ccc(-c2c(C)noc2C)cn1)C1CCCCC1 [Example 114, (S)—N-(1-Cyclohexyl-2-((5-(3,5-dimethylisoxazol-4-yl)pyridin-2-yl)amino)-2-oxoethyl)-3-ethylisoxazole-4-carboxamide]"
–,0.126,"Cc1noc(C)c1-c1ccc(NC(=O)[C@@H](NC(=O)c2ccnn2C)C2CCCCCC2)nc1 [Example 115, (S)—N-(1-Cycloheptyl-2-((5-(3,5-dimethylisoxazol-4-yl)pyridin-2-yl)amino)-2-oxoethyl)-1-methyl-1H-pyrazole-5-carboxamide]"
–,0.0631,"Cc1nocc1C(=O)N[C@H](C(=O)Nc1ccc(-c2c(C)noc2C)cn1)C1CCCCCC1 [Example 116, (S)—N-(1-Cycloheptyl-2-((5-(3,5-dimethylisoxazol-4-yl)pyridin-2-yl)amino)-2-oxoethyl)-3-methylisoxazole-4-carboxamide]"
–,0.501,"Cc1noc(C)c1-c1ccc(NC(=O)[C@@H](NC(=O)c2cnnn2C)C2CCCCCC2)nc1 [Example 117, (S)—N-(1-Cycloheptyl-2-((5-(3,5-dimethylisoxazol-4-yl)pyridin-2-yl)amino)-2-oxoethyl)-1-methyl-1H-1,2,3-triazole-5-carboxamide]"
–,0.158,"CCn1nccc1C(=O)N[C@H](C(=O)Nc1ccc(-c2c(C)noc2C)cn1)C1CCCCC1 [Example 118, (S)—N-(1-Cyclohexyl-2-((5-(3,5-dimethylisoxazol-4-yl)pyridin-2-yl)amino)-2-oxoethyl)-1-ethyl-1H-pyrazole-5-carboxamide]"
–,0.501,"Cc1c(-c2ccc(NC(=O)[C@@H](NC(=O)c3ccnn3C)C3CCCCC3)cc2)ccc(=O)n1C [Example 119, (S)—N-(1-Cyclohexyl-2-((4-(1,2-dimethyl-6-oxo-1,6-dihydropyridin-3-yl)phenyl)amino)-2-oxoethyl)-1-methyl-1H-pyrazole-5-carboxamide]"
–,0.251,"Cc1nonc1C(=O)N[C@H](C(=O)Nc1ccc(-c2c(C)noc2C)cn1)[C@H]1CC[C@H](C)CC1 [Example 120, N—((S)-2-((5-(3,5-Dimethylisoxazol-4-yl)pyridin-2-yl)amino)-1-((1r,4S)-4-methylcyclohexyl)-2-oxoethyl)-4-methyl-1,2,5-oxadiazole-3-carboxamide]"
–,0.251,"Cc1nocc1C(=O)N[C@H](C(=O)Nc1ccc(-c2c(C)noc2C)cn1)C1CCCCC1 [Example 121, (S)—N-(1-Cyclohexyl-2-((5-(3,5-dimethylisoxazol-4-yl)pyridin-2-yl)amino)-2-oxoethyl)-3-methylisoxazole-4-carboxamide]"
–,0.0398,"CCn1nccc1C(=O)N[C@H](C(=O)Nc1ccc(-c2c(C)noc2C)cn1)C1CCCCCC1 [Example 122, (S)—N-(1-Cycloheptyl-2-((5-(3,5-dimethylisoxazol-4-yl)pyridin-2-yl)amino)-2-oxoethyl)-1-ethyl-1H-pyrazole-5-carboxamide]"
–,0.0398,"Cc1noc(C)c1-c1ccc(NC(=O)[C@@H](NC(=O)c2ccnn2C(C)C)C2CCCCCC2)nc1 [Example 123, (S)—N-(1-Cycloheptyl-2-((5-(3,5-dimethylisoxazol-4-yl)pyridin-2-yl)amino)-2-oxoethyl)-1-isopropyl-1H-pyrazole-5-carboxamide]"
